Assay: Tablet dissolution in 0.01M HCl+1% sodium laurylsulfate, 50 rpm
Type: physicochemical
Method: The tablets were measured on dissolution in a medium of 0.01M HCl+1% sodium laurylsulfate (SLS), 50 rpm. The results reported in the following tables are the percentages of release drug substance. Exp 1, exp 2, etc. refer to a first, a second, etc. experiment under the same conditions.
Two coating trials were performed using the tablet core samples with a compression force of 1030 daN and 1266 daN. The coating material was polyvinyl alcohol (PVA). The film coated tablets were measured on dissolution in medium 0.01 M HCl+1% SLS, 50 rpm.

| release out of the coated tablets compared to the cores (PVA film coated tablets) | influence of the compression force on dissolution (TMC125 compared with TMC114) | Compound | impact of the coating on the release (PVA film coated tablets) |
| --- | --- | --- | --- |
|  |  | CC(C)CN(C[C@@H](O)[C@H](Cc1ccccc1)NC(=O)O[C@H]1CO[C@H]2OCC[C@H]21)S(=O)(=O)c1ccc(N)cc1 [TMC114, (1S,2R,3R,3aS,6aR)-{3-[(4-aminobenzenesulfonyl)isobutyl-amino]-1-benzyl-2-hydroxypropyl}carbamic acid hexahydrofuro[2,3-b]furan-3-yl ester monoethanolate] | only a minor impact |
| somewhat faster | more influenced | Cc1cc(C#N)cc(C)c1Oc1nc(Nc2ccc(C#N)cc2)nc(N)c1Br [TMC125, 4-[[6-amino-5-bromo-2-[(4-cyanophenyl)amino]-4-pyrimidinyl]oxy]-3,5-dimethylbenzonitrile] |  |

Source: patent US20100190809A1, “COMBINATION FORMULATIONS” (priority 2007, published 2010)
